8 compounds from patent US20260364215A1, “Radiopharmaceutical Compositions Targeting Ephrin Type-A Receptor 2 and Uses Thereof” (PeptiDream Inc., priority 2022, published 2026) can be followed below.

In general, Kd refers to the free concentration of one partner at which half of the binding sites on the other are occupied at equilibrium, for simple one-to-one binding.

Molecules are shown by their SMILES. Read-outs that look alike come from different tables or passages of the source. Numbered stars: 1 amine (or outer) side, 2 acyl side, 3 side chain; on linkers, the order of the positions; unused ones are H or OH. Bridge positions count the residues as written; N and C are the ends. Square brackets hold non-standard residues; d marks the D form. Side chains are listed from the residue outwards. Peptide text beside a SMILES is read from it. * marks the point of attachment. DOTA(Lu) = O=C1CN2CCN3CCN(CC(=O)*)CCN(CC2)CC(=O)[O][Lu]([O]1)[O]C(=O)C3; NH(1-deoxy-D-glucityl) = OC[C@@H](O)[C@@H](O)[C@H](O)[C@@H](O)CN*; DOTA = O=C(O)CN1CCN(CC(=O)O)CCN(CC(=O)*)CCN(CC(=O)O)CC1; Trp(1-Me,7-Cl) = Cn1cc(C[C@H](N)C(=O)O)c2cccc(Cl)c21; dPhe(3-CONH2) = NC(=O)c1cccc(C[C@@H](N)C(=O)O)c1; NMePhe(3-CN) = CN[C@@H](Cc1cccc(C#N)c1)C(=O)O; Piperazinyl(4-CH2COOH) = O=C(O)CN1CCN(*)CC1; Trp(1-Me) = Cn1cc(C[C@H](N)C(=O)O)c2ccccc21; PEG8 = NCCOCCOCCOCCOCCOCCOCCOCCOCCC(=O)O; NMe3Pal = CN[C@@H](Cc1cccnc1)C(=O)O; NMeF = CN[C@@H](Cc1ccccc1)C(=O)O; hCit = NC(=O)NCCCC[C@H](N)C(=O)O; Gly(cBu) = N[C@H](C(=O)O)C1CCC1; NMeE = CN[C@@H](CCC(=O)O)C(=O)O; Aad = N[C@@H](CCCC(=O)O)C(=O)O; NMeN = CN[C@@H](CC(N)=O)C(=O)O; PEG2 = NCCOCCOCCC(=O)O; CO = O=C([*:1])[*:2]; βAla = NCCC(=O)O

The target in this experiment is T1, Recombinant Human EphA2 Fc Protein (Homo sapiens, UniProt P29317).
T1 construct: purchased Elabscience
In words: Interaction analysis (kinetics, KD) of peptides and conjugates against EphA2 by SPR, Biacore T200, single-cycle kinetics (Examples B15 and B22). Format: binding. Put shortly: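 Biacore T200 SPR with Fc-tagged human EphA2 captured via anti-human antibody; running buffer HBS-P+ pH 7.4 with 1% DMSO, 25 °C. Five serial dilutions of peptide or conjugate run by single-cycle kinetics; KD from ka and kd after baseline subtraction.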
A general note: Surface plasmon resonance follows binding to a sensor surface in real time, without labels.

Where [1] appears, read: conjugates, Biacore T200 according to Example B15, Table B16, read-out: SPR Kd.

T1 sequence (P29317 24-534 limits assumed): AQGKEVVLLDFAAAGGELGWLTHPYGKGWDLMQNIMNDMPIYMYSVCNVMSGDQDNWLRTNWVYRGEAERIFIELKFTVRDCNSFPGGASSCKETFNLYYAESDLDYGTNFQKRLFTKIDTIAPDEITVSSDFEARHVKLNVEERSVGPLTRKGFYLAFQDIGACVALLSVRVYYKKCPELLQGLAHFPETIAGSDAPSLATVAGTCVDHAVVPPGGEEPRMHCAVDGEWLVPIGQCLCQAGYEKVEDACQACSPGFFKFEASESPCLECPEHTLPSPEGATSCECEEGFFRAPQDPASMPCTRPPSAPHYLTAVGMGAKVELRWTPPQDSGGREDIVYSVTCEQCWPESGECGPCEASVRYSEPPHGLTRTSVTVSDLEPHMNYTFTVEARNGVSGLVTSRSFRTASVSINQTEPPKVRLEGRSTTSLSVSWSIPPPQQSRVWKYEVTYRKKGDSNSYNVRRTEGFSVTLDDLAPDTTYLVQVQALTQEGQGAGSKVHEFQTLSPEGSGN

Regarding `C[C@@H](O)[C@@H]1NC(=O)[C@H](Cc2cn(C)c3ccccc23)NC(=O)[C@H](CCC(=O)NC[C@H](O)[C@@H](O)[C@H](O)[C@H](O)CO)NC(=O)[C@H](Cc2cn(C)c3c(Cl)cccc23)NC(=O)[C@H](CC(N)=O)N(C)C(=O)[C@H](CCC(=O)NC[C@H](O)[C@@H](O)[C@H](O)[C@H](O)CO)NC(=O)[C@H](C2CCC2)NC(=O)[C@H](CC(N)=O)NC(=O)[C@H](Cc2cccnc2)N(C)C(=O)[C@@H](Cc2cccc(C(N)=O)c2)NC(=O)CSC[C@@H](C(=O)N[C@H](CCCCNC(=O)CN2CCN3CCN4CCN(CC2)CC(=O)[O][Lu]([O]C(=O)C3)[O]C(=O)C4)C(N)=O)NC(=O)[C@H](CCCC(N)=O)NC1=O` [PDC_EphA2-00022594-C302] ({CH2CO}-[dPhe(3-CONH2)][NMe3Pal]N[Gly(cBu)]E(NH(1-deoxy-D-glucityl))[NMeN][Trp(1-Me,7-Cl)]E(NH(1-deoxy-D-glucityl))[Trp(1-Me)]T[Aad](NH2)C[dK](DOTA(Lu))-NH2; thioether N-12), the Kd was < 1 nM.
Still for that read-out and setting: for `C[C@@H](O)[C@@H]1NC(=O)[C@H](Cc2cn(C)c3ccccc23)NC(=O)[C@H](CCCCNC(=O)N2CCN(CC(=O)O)CC2)NC(=O)[C@H](Cc2cn(C)c3c(Cl)cccc23)NC(=O)[C@H](CCC(=O)O)N(C)C(=O)[C@H](CCCC(N)=O)NC(=O)[C@H](C2CCC2)NC(=O)[C@H](CC(N)=O)NC(=O)[C@H](Cc2cccc(C#N)c2)N(C)C(=O)[C@@H](Cc2cccc(C(N)=O)c2)NC(=O)CSC[C@@H](C(=O)N[C@H](CCCCNC(=O)CN2CCN3CCN4CCN(CC2)CC(=O)[O][Lu]([O]C(=O)C3)[O]C(=O)C4)C(N)=O)NC(=O)[C@H](CCCC(N)=O)NC1=O` [PDC_EphA2-00022612-C302] ({CH2CO}-[dPhe(3-CONH2)][NMePhe(3-CN)]N[Gly(cBu)][Aad](NH2)[NMeE][Trp(1-Me,7-Cl)]K([CO-Piperazinyl(4-CH2COOH)])[Trp(1-Me)]T[Aad](NH2)C[dK](DOTA(Lu))-NH2; thioether N-12) the value was < 1 nM.
In the case of `CC(C)C[C@@H]1NC(=O)[C@H](CC(N)=O)NC(=O)[C@H](Cc2cccnc2)N(C)C(=O)[C@@H](Cc2cccc(C(N)=O)c2)NC(=O)CSC[C@@H](C(=O)N[C@H](CCCCNC(=O)CN2CCN(CC(=O)O)CCN(CC(=O)O)CCN(CC(=O)O)CC2)C(N)=O)NC(=O)[C@H](CC(N)=O)NC(=O)[C@H]([C@@H](C)O)NC(=O)[C@H](Cc2cn(C)c3ccccc23)NC(=O)[C@H](CCC(=O)NC[C@H](O)[C@@H](O)[C@H](O)[C@H](O)CO)NC(=O)[C@H](Cc2cn(C)c3c(Cl)cccc23)NC(=O)[C@H](CC(N)=O)N(C)C(=O)[C@H](CC(N)=O)NC1=O.[Lu+3]` [PDC_EphA2-00026425-C302] ({CH2CO}-[dPhe(3-CONH2)][NMe3Pal]NLN[NMeN][Trp(1-Me,7-Cl)]E(NH(1-deoxy-D-glucityl))[Trp(1-Me)]TNC[dK](DOTA)-NH2; thioether N-12), under setting [1], the Kd is < 1 nM.
Regarding `CC(C)C[C@@H]1NC(=O)[C@H](CC(N)=O)NC(=O)[C@H](Cc2cccnc2)N(C)C(=O)[C@@H](C)NC(=O)CSC[C@@H](C(=O)N[C@H](CCCCNC(=O)CN(C)C(=O)CN(C)C(=O)CN(C)C(=O)CN(C)C(=O)CN(C)C(=O)CN(C)C(=O)CN(C)C(=O)CN(C)C(=O)CN(C)C(=O)CN(C)C(=O)CCNC(=O)CN2CCN3CCN4CCN(CC2)CC(=O)[O][Lu]([O]C(=O)C3)[O]C(=O)C4)C(N)=O)NC(=O)[C@H](CCCC(N)=O)NC(=O)[C@H]([C@@H](C)O)NC(=O)[C@H](Cc2cn(C)c3ccccc23)NC(=O)[C@H](CCCCNC(=O)N2CCN(CC(=O)O)CC2)NC(=O)[C@H](Cc2cn(C)c3ccccc23)NC(=O)C(CCC(=O)O)N(C)C(=O)[C@H](CCCC(N)=O)NC1=O` (some centres unmarked) [PDC_EphA2-00007196-C310], the Kd is < 1 nM.
With `CC(C)C[C@@H]1NC(=O)[C@H](CC(N)=O)NC(=O)[C@H](Cc2ccccc2)N(C)C(=O)[C@@H](C)NC(=O)CSC[C@@H](C(=O)NCCC(=O)N[C@H](CCCCNC(=O)CCOCCOCCNC(=O)CCOCCOCCOCCOCCOCCOCCOCCOCCNC(=O)CN2CCN(CC(=O)O)CCN(CC(=O)O)CCN(CC(=O)O)CC2)C(N)=O)NC(=O)[C@H](CCC(=O)O)NC(=O)[C@H]([C@@H](C)O)NC(=O)[C@H](Cc2cn(C)c3ccccc23)NC(=O)[C@H](C(C)C)NC(=O)[C@H](Cc2cn(C)c3ccccc23)NC(=O)[C@H](Cc2ccccc2)N(C)C(=O)[C@H](CCCC(=O)O)NC1=O.[Lu+3]` [PDC_EphA2-00001417-C304] ({CH2CO}-[dA][NMeF]NL[Aad][NMeF][Trp(1-Me)]V[Trp(1-Me)]TEC[βAla][dK]([PEG2-PEG8-DOTA])-NH2; thioether N-12), the Kd under setting [1] fell in the range of 1 to 10 nM.
Same read-out and setting: for `CC(C)C[C@@H]1NC(=O)[C@H](CC(N)=O)NC(=O)[C@H](Cc2cccnc2)N(C)C(=O)[C@@H](C)NC(=O)CSC[C@@H](C(=O)NCCC(=O)N[C@H](CCCCNC(=O)CCOCCOCCNC(=O)CCOCCOCCOCCOCCOCCOCCOCCOCCNC(=O)CN2CCN(CC(=O)O)CCN(CC(=O)O)CCN(CC(=O)O)CC2)C(N)=O)NC(=O)[C@H](CCCC(N)=O)NC(=O)[C@H]([C@@H](C)O)NC(=O)[C@H](Cc2cn(C)c3ccccc23)NC(=O)[C@H](CCCCNC(=O)N2CCN(CC(=O)O)CC2)NC(=O)[C@H](Cc2cn(C)c3ccccc23)NC(=O)[C@H](CCC(=O)O)N(C)C(=O)[C@H](CCCC(N)=O)NC1=O.[Lu+3]` [PDC_EphA2-00007196-C304] ({CH2CO}-[dA][NMe3Pal]NL[Aad](NH2)[NMeE][Trp(1-Me)]K([CO-Piperazinyl(4-CH2COOH)])[Trp(1-Me)]T[Aad](NH2)C[βAla][dK]([PEG2-PEG8-DOTA])-NH2; thioether N-12) the value was < 1 nM.
For the compound `CN1C(=O)[C@H](CO)NC(=O)[C@H](C2CCC2)NC(=O)[C@H](CC(N)=O)NC(=O)[C@H](Cc2cccnc2)N(C)C(=O)[C@@H](Cc2cccc(C(N)=O)c2)NC(=O)CSC[C@@H](C(=O)N[C@@H](CCCCNC(=O)CN2CCN3CCN4CCN(CC2)CC(=O)[O][Lu]([O]C(=O)C3)[O]C(=O)C4)C(N)=O)NC(=O)[C@H](Cc2cn(C)c3ccccc23)NC(=O)[C@H](CCCCNC(N)=O)NC(=O)[C@H](Cc2cn(C)c3c(Cl)cccc23)NC(=O)[C@@H]1Cc1cccnc1` [PDC_EphA2-00026602-C301] ({CH2CO}-[dPhe(3-CONH2)][NMe3Pal]N[Gly(cBu)]S[NMe3Pal][Trp(1-Me,7-Cl)][hCit][Trp(1-Me)]CK(DOTA(Lu))-NH2; thioether N-10), the Kd was < 1 nM.
With `CC(C)C[C@@H]1NC(=O)[C@H](CC(N)=O)NC(=O)[C@H](Cc2cccnc2)N(C)C(=O)[C@@H](C)NC(=O)CSC[C@@H](C(=O)NCCC(=O)N[C@H](CCCCNC(=O)CCOCCOCCNC(=O)CCOCCOCCOCCOCCOCCOCCOCCOCCNC(=O)CN2CCN(CC(=O)O)CCN(CC(=O)O)CCN(CC(=O)O)CC2)C(N)=O)NC(=O)[C@H](CCCC(N)=O)NC(=O)[C@H]([C@@H](C)O)NC(=O)[C@H](Cc2cn(C)c3ccccc23)NC(=O)[C@H](CCCCNC(=O)N2CCN(CC(=O)O)CC2)NC(=O)[C@H](Cc2cn(C)c3ccccc23)NC(=O)[C@H](CCC(=O)O)N(C)C(=O)[C@H](CCCC(=O)O)NC1=O.[Lu+3]` [PDC_EphA2-00008094-C304] ({CH2CO}-[dA][NMe3Pal]NL[Aad][NMeE][Trp(1-Me)]K([CO-Piperazinyl(4-CH2COOH)])[Trp(1-Me)]T[Aad](NH2)C[βAla][dK]([PEG2-PEG8-DOTA])-NH2; thioether N-12), the equilibrium dissociation constant (Kd) under setting [1] was < 1 nM.
